The values that follow come from patent US12637499B2, “Adrenomedullin analog, method for producing the same, and pharmaceutical use thereof” (priority 2020, dated 2026).

A short description of data set [1]: in vitro. The settings on record: for change in amount with the lapse of reaction time in reaction mixture with serum: Experiment IV, up to 240 minutes; for remaining at 4 h: serum, pH 7.1. How it is done:
After the lapse of a predetermined time, a 30-μl portion was taken out of the reaction solution, transferred into 170 μl of 0.1% aqueous solution of trifluoroacetic acid (TFA), and stored at −80° C. until analysis.
Quantitative analysis was performed for AM contained in the thus-obtained samples of a reaction mixture with serum or plasma by using specific fluoroimmunoassay (Tosoh Corporation) with two antibodies differing in their recognition sites. […] In the figure, the abscissa represents reaction time (min), and the ordinate represents concentration of AM (UM).
In the figure, the abscissa represents reaction time (min), and the ordinate represents concentration of AM or an AM analog (μM).
In the figure, the abscissa represents the type of AM or an AM analog, and the ordinate represents residual rates of AM or an AM analog (%).

For data set [2] the following is noted: 50 nmol/kg subcutaneous, Experiment VI.
Experimental: (§1) Eight-week-old male Wistar rats were purchased from Charles River Laboratories Japan, Inc. The rats were grown with normal feeds in the absence of specific pathogens under cycles of a 12-hour light period and a 12-hour dark period. […] To determine plasma AM concentrations, 50 nmol/kg of AM or an AM analog was subcutaneously administered. A peripheral blood sample was collected from the tail vein into a test tube (containing 21 μg of aprotinin and 0.3 mg of EDTA-2Na) at predetermined times (0, 15, 30, 60, and 120 minutes after administration). The test tube was centrifuged at 1,700×g to afford plasma.
A short description of data set [3]: in vivo. The settings on record: male, Wistar, rat, sc, 50 nmol/kg; for AUC: in vivo; for Cmax / half-life: plasma.
Experimental: as §1
Data set [4] is described as follows: in vitro. To be noted: Experiment VIII; 10^−7 M, 37° C.; 4 hours after the beginning of reaction. How it is done: The stabilities of the AM analog peptides in serum were evaluated with the same procedure as in Experiment I except the following procedure. […] A reaction mixture containing 4 μL of phosphate buffer, 20 μL of human serum (Sigma-Aldrich Co. LLC, USA), and 14 μL of water was prepared. To the reaction mixture, 2 μL of AM or an AM analog peptide (2×10^−6 M, final concentration: 10^−7 M) was added, and reaction was initiated at 37° C. The reaction was terminated by addition of 160 μL of ELISA buffer to the reaction mixture 0, 1, or 4 hours after the beginning of reaction. […] In the figure, the abscissa represents reaction time (hr), and the ordinate represents concentration in serum of AM or an AM analog (%) represented as relative values to concentration of AM or an AM analog at the beginning of reaction (i.e., 0 hours after the beginning of reaction).

Data set [5] concerns the target T1, AM type 1 receptor (AMI receptor) (Homo sapiens, UniProt O60895+Q16602).
T1 construct: expressed in transfected cells; medium contains hygromycin B and Geneticin
Nature of the data set: Intracellular cAMP production in HEK293 cells stably expressing AM type 1 receptor (Experiments V and IX). It counts as cell-based. The source says: The adrenomedullin activity exerted by AM, shown above with examples, will be exerted via increased concentration of intracellular cAMP in normal cases. Thus, the increased concentration of intracellular cAMP can be considered as an index of the adrenomedullin activity of the compound according to the aspect. In each aspect of the invention, the effect of increasing concentration of intracellular cAMP can be evaluated, for example, by adding a target compound to a cultured cell line (HEK293 cell line) caused to stably express an AM type 1 receptor (AMI receptor) and measuring the amount of intracellular cAMP produced.
The physiological effect of AM is known to be exerted via increase in the concentration of intracellular cAMP (see Kitamura K et al., Biochem Biophys Res Commun, 30 Apr. 1993, Volume 192, Issue 2, pp. 553-560). Accordingly, each AM analog was added to a cultured cell line (HEK293 cell line) caused to stably express an AM type 1 receptor (AMI receptor), and the amount of intracellular cAMP produced was measured. HEK293 cells were cultured in Dulbecco's modified Eagle's medium (with 10% fetal bovine serum, 100 U/ml penicillin G, […] streptomycin, 0.25 mg/ml amphotericin B, […] hygromycin B, and […] Geneticin) in a fibronectin-coated 24-well plate (Thermo Fisher Scientific) (under 37° C., humidified, 5% CO2 conditions). After culturing for 3 days, 90%-confluent cells with accumulation of intracellular cAMP stimulated were subjected to experiment. The medium was exchanged with Hanks's balanced salt solution containing 20 mM 4-(2-hydroxyethyl)-1-piperazineethanesulfonic acid and 0.1% bovine serum albumin, AM or an AM analog was added to the cells in the presence of 0.5 mM isobutylmethylxanthine (IBMX), and the cells were incubated at 37° C. for 15 minutes. The reaction was terminated by addition of cell lysis buffer. Then, the amount of intracellular cAMP produced in the HEK293 cells of each well was measured using an ELISA kit for cAMP measurement (GE Healthcare Japan Corp., #RPN2251). […] In the figure, the abscissa represents logarithms of concentration of AM or an AM analog added (M), and the ordinate represents amounts of intracellular cAMP produced in HEK293 cells stably expressing an AMI receptor (fmol/well).
In the figure, the abscissa represents logarithms of concentration of AM or an AM analog added (M), and the ordinate represents amounts of intracellular cAMP produced in HEK293 cells stably expressing an AMI receptor (fmol/ml).

Data set [6] can be described thus: in vivo. How it is done:
Seven-week-old male Wistar rats were prepared, and grown with normal feeds. To determine plasma AM concentrations, 50 nmol/kg of AM or an AM analog was subcutaneously administered. A peripheral blood sample was collected from the tail vein into a Kantan tube® (containing heparin Na, Eiken Chemical Co., Ltd., Tochigi, Japan) at predetermined times (0, 15, 30, 60, and 120 minutes after administration). The tube was centrifuged at 2,000×g. Plasma was collected from the tube, and transferred into a test tube (containing 21 μg of aprotinin and 0.3 mg of EDTA-2Na) and stored. […] In the figure, the abscissa represents elapsed time after subcutaneous administration (hr), and the ordinate represents concentration in plasma of AM or an AM analog (pM). In addition, maximum concentrations in blood (Cmax) of AM or the AM analogs in rat plasma after subcutaneous administration were calculated.

Read-outs that look alike come from different tables or passages of the source. Where a SMILES comes first, the peptide text is derived from it. Bridges are numbered along the chain shown (N, C = ends).

T1 sequence (Q16602 23-461): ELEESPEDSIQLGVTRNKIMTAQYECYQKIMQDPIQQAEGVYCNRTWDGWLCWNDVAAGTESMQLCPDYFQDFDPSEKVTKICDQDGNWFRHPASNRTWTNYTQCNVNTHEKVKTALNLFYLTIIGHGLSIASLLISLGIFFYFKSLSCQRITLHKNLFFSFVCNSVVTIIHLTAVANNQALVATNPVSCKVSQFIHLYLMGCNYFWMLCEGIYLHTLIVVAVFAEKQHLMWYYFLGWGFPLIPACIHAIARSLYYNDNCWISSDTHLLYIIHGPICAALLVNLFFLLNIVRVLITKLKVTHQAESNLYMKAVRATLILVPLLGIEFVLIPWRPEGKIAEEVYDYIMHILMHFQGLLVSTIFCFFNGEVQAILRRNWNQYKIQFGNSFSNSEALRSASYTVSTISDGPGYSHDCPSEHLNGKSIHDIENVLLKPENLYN
T1 sequence (O60895 43-175): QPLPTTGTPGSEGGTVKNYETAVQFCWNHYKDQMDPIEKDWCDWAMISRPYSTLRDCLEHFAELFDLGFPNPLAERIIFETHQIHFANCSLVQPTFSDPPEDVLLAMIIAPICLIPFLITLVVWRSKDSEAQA

What is called fraction remaining is what is left of the initial amount, in per cent. Read a low fraction remaining as a greater loss. The AUC is the area under the concentration-time curve, a measure of exposure. What is called Cmax is the maximum level reached in the sampled fluid or tissue. By half-life is commonly meant the time needed for the level to fall by half in the phase considered. High values mean slow decline, low ones rapid decline. Consider `CC[C@H](C)[C@H](NC(=O)[C@H](CCC(N)=O)NC(=O)[C@H](Cc1c[nH]cn1)NC(=O)[C@H](C)NC(=O)[C@H](CC(C)C)NC(=O)[C@H](CCCCN)NC(=O)[C@H](CCC(N)=O)NC(=O)[C@@H](NC(=O)[C@@H](NC(=O)[C@@H]1CSSC[C@H](NC(=O)CNC(=O)[C@H](Cc2ccccc2)NC(=O)[C@@H](N)CO)C(=O)N[C@@H](CCCNC(=N)N)C(=O)N[C@@H](Cc2ccccc2)C(=O)NCC(=O)N[C@@H]([C@@H](C)O)C(=O)N1)[C@@H](C)O)C(C)C)C(=O)N[C@@H](Cc1ccc(O)cc1)C(=O)N[C@@H](CCC(N)=O)C(=O)N[C@@H](Cc1ccccc1)C(=O)N[C@H](C(=O)N[C@@H](CC(=O)O)C(=O)N[C@@H](CCCCN)C(=O)N[C@@H](CC(=O)O)C(=O)N[C@@H](CCCCN)C(=O)N[C@@H](CC(=O)O)C(=O)N[C@@H](CC(N)=O)C(=O)N[C@H](C(=O)N[C@@H](C)C(=O)N1CCC[C@H]1C(=O)N[C@@H](CCCCN)C(=O)N[C@@H](CO)C(=O)N[C@@H](CCCCN)C(=O)N[C@H](C(=O)N[C@@H](CO)C(=O)N1CCC[C@H]1C(=O)N[C@@H](CCC(N)=O)C(=O)NCC(=O)N[C@@H](Cc1ccc(O)cc1)C(N)=O)[C@@H](C)CC)C(C)C)[C@@H](C)O` [[Lys-44]hAM(13-52), SFGCRFGTCTVQKLAHQIYQFTDKDKDNVAPKSKISPQGY-CONH2] (H-SFGCRFGTCTVQKLAHQIYQFTDKDKDNVAPKSKISPQGY-NH2; disulfide 4-9), for which, in the data set “in vitro [1]”, the “change in amount with the lapse of reaction time in reaction mixture with serum” value is “almost no decrease or only slight decrease in amount” and the fraction remaining at 4 h was determined as 51.8%. For the same compound, the “detection in rat plasma after subcutaneous administration” value (shortened to “detection in rat plasma”) in data set [2] is on record as “detected in rat plasma 15 minutes after administration”. In “in vivo [3]”, this compound gave an AUC of 0.227 nM·h, a Cmax of 0.396 nM and a half-life of 1.47 h.

For `CC[C@H](C)[C@H](NC(=O)[C@H](CCC(N)=O)NC(=O)[C@H](Cc1c[nH]cn1)NC(=O)[C@H](C)NC(=O)[C@H](CC(C)C)NC(=O)[C@H](CCCCN)NC(=O)[C@H](CCC(N)=O)NC(=O)[C@@H](NC(=O)[C@@H](NC(=O)[C@@H]1CSSC[C@H](NC(=O)CNC(=O)[C@H](Cc2ccccc2)NC(=O)[C@@H](N)CO)C(=O)N[C@@H](CCCNC(=N)N)C(=O)N[C@@H](Cc2ccccc2)C(=O)NCC(=O)N[C@@H]([C@@H](C)O)C(=O)N1)[C@@H](C)O)C(C)C)C(=O)N[C@@H](Cc1ccc(O)cc1)C(=O)N[C@@H](CCC(N)=O)C(=O)N[C@@H](Cc1ccccc1)C(=O)N[C@H](C(=O)N[C@@H](CC(=O)O)C(=O)N[C@@H](CCCCN)C(=O)N[C@@H](CC(=O)O)C(=O)N[C@@H](CCCCN)C(=O)N[C@@H](CC(=O)O)C(=O)N[C@@H](CC(N)=O)C(=O)N[C@H](C(=O)N[C@@H](C)C(=O)N1CCC[C@H]1C(=O)N[C@H](CCCNC(=N)N)C(=O)N[C@@H](CO)C(=O)N[C@@H](CCCCN)C(=O)N[C@H](C(=O)N[C@@H](CO)C(=O)N1CCC[C@H]1C(=O)N[C@@H](CCC(N)=O)C(=O)NCC(=O)N[C@@H](Cc1ccc(O)cc1)C(N)=O)[C@@H](C)CC)C(C)C)[C@@H](C)O` (relative stereo) [[D-Arg-44]hAM(13-52), SFGCRFGTCTVQKLAHQIYQFTDKDKDNVAP-*R-S-K-I-S-P-Q-G-Y-CONH2], in “in vitro [1]”, the “change in amount with the lapse of reaction time in reaction mixture with serum” value is “almost no decrease or only slight decrease in amount” and the amount remaining at 4 h came to 81.9%. In data set [2], the “detection in rat plasma” value is reported as “detected in rat plasma 15 minutes after administration”. In the data set “in vivo [3]”, this compound showed an exposure (AUC) of 0.0591 nM·h, a Cmax of 0.111 nM and a half-life of 1.27 h.

In general, EC50 refers to the concentration needed to bring the measured effect to its halfway point. Read a low EC50 as higher potency in that assay. Turning to `CC[C@H](C)[C@H](NC(=O)[C@H](CCC(N)=O)NC(=O)[C@H](Cc1c[nH]cn1)NC(=O)[C@H](C)NC(=O)[C@H](CC(C)C)NC(=O)[C@H](CCCCN)NC(=O)[C@H](CCC(N)=O)NC(=O)[C@@H](NC(=O)[C@@H](NC(=O)[C@@H]1CSSC[C@H](NC(=O)CNC(=O)[C@H](Cc2ccccc2)NC(=O)[C@@H](N)CO)C(=O)N[C@@H](CCCNC(=N)N)C(=O)N[C@@H](Cc2ccccc2)C(=O)NCC(=O)N[C@@H]([C@@H](C)O)C(=O)N1)[C@@H](C)O)C(C)C)C(=O)N[C@@H](Cc1ccc(O)cc1)C(=O)N[C@@H](CCC(N)=O)C(=O)N[C@@H](Cc1ccccc1)C(=O)N[C@H](C(=O)N[C@@H](CC(=O)O)C(=O)N[C@@H](CCCCN)C(=O)N[C@@H](CC(=O)O)C(=O)N[C@@H](CCCCN)C(=O)N[C@@H](CC(=O)O)C(=O)N[C@@H](CC(N)=O)C(=O)N[C@H](C(=O)N[C@@H](C)C(=O)N1CCC[C@H]1C(=O)N[C@@H](CO)C(=O)N[C@@H](CCCCN)C(=O)N[C@H](C(=O)N[C@@H](CO)C(=O)N1CCC[C@H]1C(=O)N[C@@H](CCC(N)=O)C(=O)NCC(=O)N[C@@H](Cc1ccc(O)cc1)C(N)=O)[C@@H](C)CC)C(C)C)[C@@H](C)O` [[des-Arg-44]hAM(13-52), SFGCRFGTCTVQKLAHQIYQFTDKDKDNVAPSKISPQGY-CONH2] (H-SFGCRFGTCTVQKLAHQIYQFTDKDKDNVAPSKISPQGY-NH2; disulfide 4-9), the “stability in reaction mixture with human serum” value in the data set “in vitro [4]” was “stable”. The same compound showed an EC50 in data set [5] of 1.95 nM. Also, the “intracellular cAMP concentration-increasing activity” value in data set [5] (Experiment IX, addition at 10^−9 M or 10^−8 M, HEK293 cells) is given as “approximately equivalent to that of hAM(1-52) or hAM(13-52)”. Also, in the data set “in vivo [6]” (50 nmol/kg subcutaneous, Experiment X), the “detection in rat plasma” value is “detected in rat plasma 15 minutes after administration”. The compound also showed a Cmax in “in vivo [6]” (male, Wistar, rat, in vivo, sc, 50 nmol/kg) of 0.679 nM.
